Results: patent publication US6770287B1, “Biocidal cellulosic material” (The Regents of the University of California, priority 2000, dated 2004)

Assays:
[1] = tested on: E. coli; assay: AATCC Test Method 147 qualitative antibacterial test (inhibition zone); type: cell-based, Escherichia coli (ATCC 2666)
[2] = tested on: S. aureus; assay: AATCC Test Method 100 quantitative antibacterial test (bacterial reduction); type: cell-based, Staphylococcu aureus (ATCC 5368); conditions: for Bacterial Reduction Rates After fifteen washings S. aur. / Bacterial Reduction Rates After five Washings S. aur. / Bacterial Reduction Rates After ten Washings S. aur. / Bacterial Reduction Rates After twenty washings S. aur.: contact time 60 min
Text: (§1) AATCC Test Method 100 was adopted in this study. According to this test method, four pieces of staked circular fabric swatches 4.8±0.1 (about one grams) were inoculated with 1.0±0.1 milliliter of inoculum in a 250 milliliter jar. The inoculum was a nutrient broth culture containing over 1.0×10^6 clone forming units (CFU) of organisms. After the swatches were inoculated, they were neutralized by 100 milliliter of a 0.02% sodium thiosulfate solution in the jar. The contact time was the time between inoculation and neutralization. The jar was vigorously shaken and the neutralized solution was diluted in serial. The dilutions, usually 100, 101, and 102, were plated on nutrient agar and incubated for 18-24 hours at 37° C. The number of bacteria recovered from the inoculated finished fabrics was counted and compared with that from untreated fabrics. Six log reduction means the total inactivation of bacteria, and one log reduction means that finished fabrics reduced bacteria counts from 106 CFU to 105 CFU.
(§2) Finished fabrics prepared from solutions containing 1%-6% of monomethylol-5,5-dimethylhydantoin following the protocol set forth in Example 1 with pickup rates below 1% have been tested.
(§3) Fabrics finished in accordance with the protocol set forth in Example II with Anti-2, i.e., 1,3-dimethylol-5,5-dimethylhydantoin, were also tested with AATCC test method 100, which was briefly described in Example IV. In the tests, a diluted CLOROX® solution containing 0.01 % active chlorine was used to chlorinate the finished fabrics.

[3] = tested on: S. aureus; assay: AATCC Test Method 147 qualitative antibacterial test (inhibition zone); type: cell-based, Staphylococcu aureus (ATCC 5368)
Text: (§4) Fabric samples of #405 (pure cotton, Testfabrics, Inc., Middlesex, N.J.) and # 7402 (cotton/polyester 35/65, Testfabrics, Inc., Middlesex, N.J.) were finished in a manner similar to that set forth in Example I. The concentration of the finishing agent used was from about 5 to 15% in the finishing of the cotton fabrics and from about 5 to 20% in the finishing of the cotton/polyester (35/65) blend fabric because of the lower concentration of cellulose in the blend. The final biocidal property was imparted onto the finished fabrics by washing them with a diluted CLOROX® solution containing 0.25% chlorine after each washing circle. Qualitative antibacterial tests were conducted according to AATCC Test Method 147.
(§5) In the AATCC Test Method 147, two pieces of chlorinated fabrics with the size of 25 mm×50 mm were placed on a nutrient agar plate which had been inoculated by five streaks of a diluted bacteria solution using a 4 mm inoculating loop. The diluted bacteria solution was prepared by transferring 1.0 milliliter of 24 hour broth culture into 9.0 milliliter of sterile distilled water. The agar plate was incubated at 37° C. for 18-24 hours. The minimum width of inhibition zone along a streak on either side of the test specimen are measured. Table I sets forth the qualitative biocidal evaluations of the finished fabrics with different concentration of the agent Anti-1.

[4] = tested on: S. aureus; assay: as above; type: cell-based, Staphylococcu aureus (ATCC 5368); remark: listed apart in the source
[5] = tested on: E. coli; assay: as above; type: cell-based, Escherichia coli (ATCC 2666); remark: listed apart in the source
Text: as §4, §5

[6] = tested on: E. coli; assay: AATCC Test Method 100 quantitative antibacterial test (bacterial reduction); type: cell-based, Escherichia coli (ATCC 2666); conditions: Anti-1 4%, contact time 60 min
Text: as §1, §2, §3

[7] = Cotton cloth #400, add-on 1.43%
[8] = Dacron/Cotton 65/35 #7402, add-on 1.19%
[9] = Terry cloth 100% Cotton, add-on 1.40%
[10] = Anti-1 1%, #7402, take up 0.14%
[11] = Anti-1 2%, #7402, take up 0.07%
[12] = Anti-1 4%, #7402, take up 0.45%
[13] = Anti-1 6%, #7402, take up 0.70%
[14] = #405 cotton, Anti-1 5%, add-on 1.2%
[15] = #405 cotton, Anti-1 10%, add-on 2.3%
[16] = #405 cotton, Anti-1 15%, add-on 3.1%
[17] = #7402 cotton/polyester 35/65, Anti-1 5%, add-on 0.8%
[18] = #7402 cotton/polyester 35/65, Anti-1 10%, add-on 1.4%
[19] = #7402 cotton/polyester 35/65, Anti-1 15%, add-on 1.6%
[20] = #7402 cotton/polyester 35/65, Anti-1 20%, add-on 2.0%

CC1(C)NC(=O)N(CO)C1=O [Anti-1, monomethylol-5,5-dimethylhydantoin]
>1.0 mm: Biocidal results against E. coli after being activated ([1]; Rayon, add-on 1.21%) | Biocidal results against S. aureus after being activated [3, 7] | Biocidal results against S. aureus after being activated ([4]; Rayon, add-on 1.21%)
2 log: Bacterial Reduction Rates After ten Washings E. coli ([6]; Cl 0.25%, #400)
1 log: Bacterial reduction rates on contact time 30 min S. aureus ([2]; Anti-1 1%, #400, take up 0.65%) | Bacterial reduction rates on contact time 0 min S. aureus ([2]; Anti-1 2%, #400, take up 0.03%) | Bacterial reduction rates on contact time 30 min S. aureus [2, 11] | Bacterial Reduction Rates After twenty washings S. aur. ([2]; Cl 0.25%, #7409, Anti-1 4%) | Bacterial Reduction Rates After twenty washings E. coli ([6]; Cl 0.1%, #400) | Bacterial Reduction Rates After fifteen washings E. coli ([6]; Cl 0.25%, #400) | Bacterial Reduction Rates After twenty washings E. coli ([6]; Cl 0.25%, #400) | Bacterial Reduction Rates After twenty washings E. coli ([6]; Cl 0.25%, #7409)
0 log: Bacterial Reduction Rates After twenty washings S. aur. ([2]; Cl 0.1%, #400, Anti-1 4%) | Bacterial Reduction Rates After fifteen washings S. aur. ([2]; Cl 0.25%, #400, Anti-1 4%) | Bacterial Reduction Rates After ten Washings S. aur. ([2]; Cl 0.25%, #400, Anti-1 4%) | Bacterial Reduction Rates After twenty washings S. aur. ([2]; Cl 0.25%, #400, Anti-1 4%)
>3 mm: Biocidal Results After 20 Times Washing S. aureus [3, 15] | Biocidal Results After 20 Times Washing E. coli [5, 14] | Biocidal Results After 50 Times Washing E. coli [5, 15] | Biocidal Results After 20 Times Washing E. coli [5, 17] | Biocidal Results After 20 Times Washing E. coli [5, 18] | Biocidal Results After 50 Times Washing E. coli [5, 20]
>2 mm: Biocidal Results After 50 Times Washing E. coli [5, 18] | Biocidal Results After 50 Times Washing E. coli [5, 19]
>10 mm: Biocidal results against E. coli after being activated [1, 8] | Biocidal results against E. coli after being activated [1, 9]
6 log: Bacterial reduction rates on contact time 30 min S. aureus ([2]; Anti-1 2%, #400, take up 0.03%) | Bacterial reduction rates on contact time 60 min S. aureus ([2]; Anti-1 2%, #400, take up 0.03%) | Bacterial reduction rates on contact time 60 min S. aureus [2, 11] | Bacterial reduction rates on contact time 0 min S. aureus ([2]; Anti-1 4%, #400, take up 0.47%) | Bacterial reduction rates on contact time 30 min S. aureus ([2]; Anti-1 4%, #400, take up 0.47%) | Bacterial reduction rates on contact time 60 min S. aureus ([2]; Anti-1 4%, #400, take up 0.47%) | Bacterial reduction rates on contact time 0 min S. aureus [2, 12] | Bacterial reduction rates on contact time 30 min S. aureus [2, 12] | Bacterial reduction rates on contact time 60 min S. aureus [2, 12] | Bacterial reduction rates on contact time 0 min S. aureus ([2]; Anti-1 6%, #400, take up 0.70%) | Bacterial reduction rates on contact time 30 min S. aureus ([2]; Anti-1 6%, #400, take up 0.70%) | Bacterial reduction rates on contact time 60 min S. aureus ([2]; Anti-1 6%, #400, take up 0.70%) | Bacterial reduction rates on contact time 0 min S. aureus [2, 13] | Bacterial reduction rates on contact time 30 min S. aureus [2, 13] | Bacterial reduction rates on contact time 60 min S. aureus [2, 13] | Bacterial Reduction Rates After fifteen washings S. aur. ([2]; Cl 0.01%, #400, Anti-1 4%) | Bacterial Reduction Rates After five Washings S. aur. ([2]; Cl 0.01%, #400, Anti-1 4%) | Bacterial Reduction Rates After ten Washings S. aur. ([2]; Cl 0.01%, #400, Anti-1 4%) | Bacterial Reduction Rates After twenty washings S. aur. ([2]; Cl 0.01%, #400, Anti-1 4%) | Bacterial Reduction Rates After fifteen washings S. aur. ([2]; Cl 0.01%, #7409, Anti-1 4%) | Bacterial Reduction Rates After five Washings S. aur. ([2]; Cl 0.01%, #7409, Anti-1 4%) | Bacterial Reduction Rates After ten Washings S. aur. ([2]; Cl 0.01%, #7409, Anti-1 4%) | Bacterial Reduction Rates After twenty washings S. aur. ([2]; Cl 0.01%, #7409, Anti-1 4%) | Bacterial Reduction Rates After fifteen washings S. aur. ([2]; Cl 0.1%, #400, Anti-1 4%) | Bacterial Reduction Rates After five Washings S. aur. ([2]; Cl 0.1%, #400, Anti-1 4%) | Bacterial Reduction Rates After ten Washings S. aur. ([2]; Cl 0.1%, #400, Anti-1 4%) | Bacterial Reduction Rates After fifteen washings S. aur. ([2]; Cl 0.1%, #7409, Anti-1 4%) | Bacterial Reduction Rates After five Washings S. aur. ([2]; Cl 0.1%, #7409, Anti-1 4%) | Bacterial Reduction Rates After ten Washings S. aur. ([2]; Cl 0.1%, #7409, Anti-1 4%) | Bacterial Reduction Rates After twenty washings S. aur. ([2]; Cl 0.1%, #7409, Anti-1 4%) | Bacterial Reduction Rates After five Washings S. aur. ([2]; Cl 0.25%, #400, Anti-1 4%) | Bacterial Reduction Rates After fifteen washings S. aur. ([2]; Cl 0.25%, #7409, Anti-1 4%) | Bacterial Reduction Rates After five Washings S. aur. ([2]; Cl 0.25%, #7409, Anti-1 4%) | Bacterial Reduction Rates After ten Washings S. aur. ([2]; Cl 0.25%, #7409, Anti-1 4%) | Bacterial Reduction Rates After fifteen washings E. coli ([6]; Cl 0.01%, #400) | Bacterial Reduction Rates After five Washings E. coli ([6]; Cl 0.01%, #400) | Bacterial Reduction Rates After ten Washings E. coli ([6]; Cl 0.01%, #400) | Bacterial Reduction Rates After twenty washings E. coli ([6]; Cl 0.01%, #400) | Bacterial Reduction Rates After fifteen washings E. coli ([6]; Cl 0.01%, #7409) | Bacterial Reduction Rates After five Washings E. coli ([6]; Cl 0.01%, #7409) | Bacterial Reduction Rates After ten Washings E. coli ([6]; Cl 0.01%, #7409) | Bacterial Reduction Rates After twenty washings E. coli ([6]; Cl 0.01%, #7409) | Bacterial Reduction Rates After fifteen washings E. coli ([6]; Cl 0.1%, #400) | Bacterial Reduction Rates After five Washings E. coli ([6]; Cl 0.1%, #400) | Bacterial Reduction Rates After ten Washings E. coli ([6]; Cl 0.1%, #400) | Bacterial Reduction Rates After fifteen washings E. coli ([6]; Cl 0.1%, #7409) | Bacterial Reduction Rates After five Washings E. coli ([6]; Cl 0.1%, #7409) | Bacterial Reduction Rates After ten Washings E. coli ([6]; Cl 0.1%, #7409) | Bacterial Reduction Rates After twenty washings E. coli ([6]; Cl 0.1%, #7409) | Bacterial Reduction Rates After five Washings E. coli ([6]; Cl 0.25%, #400) | Bacterial Reduction Rates After fifteen washings E. coli ([6]; Cl 0.25%, #7409) | Bacterial Reduction Rates After five Washings E. coli ([6]; Cl 0.25%, #7409) | Bacterial Reduction Rates After ten Washings E. coli ([6]; Cl 0.25%, #7409)
>8 mm: Biocidal Results After 20 Times Washing E. coli [5, 15]
>4 mm: Biocidal Results After 50 Times Washing S. aureus [3, 16] | Biocidal Results After 20 Times Washing S. aureus [3, 20] | Biocidal Results After 50 Times Washing E. coli [5, 16]
kill all: Biocidal Results After 20 Times Washing S. aureus [3, 16] | Biocidal Results After 20 Times Washing S. aureus [3, 19] | Biocidal results against S. aureus after being activated [4, 9] | Biocidal Results After 20 Times Washing E. coli [5, 16] | Biocidal Results After 20 Times Washing E. coli [5, 19] | Biocidal Results After 20 Times Washing E. coli [5, 20]
>2.0 mm: Biocidal results against E. coli after being activated [1, 7]
No: Bacterial reduction rates on contact time 0 min S. aureus ([2]; Anti-1 1%, #400, take up 0.65%) | Bacterial reduction rates on contact time 60 min S. aureus ([2]; Anti-1 1%, #400, take up 0.65%) | Bacterial reduction rates on contact time 0 min S. aureus [2, 10] | Bacterial reduction rates on contact time 30 min S. aureus [2, 10] | Bacterial reduction rates on contact time 60 min S. aureus [2, 10] | Bacterial reduction rates on contact time 0 min S. aureus [2, 11]
>1 mm: Biocidal Results After 20 Times Washing S. aureus [3, 14] | Biocidal Results After 50 Times Washing S. aureus [3, 15] | Biocidal Results After 20 Times Washing S. aureus [3, 17] | Biocidal Results After 20 Times Washing S. aureus [3, 18] | Biocidal Results After 50 Times Washing S. aureus [3, 19] | Biocidal Results After 50 Times Washing S. aureus [3, 20] | Biocidal Results After 50 Times Washing E. coli [5, 14] | Biocidal Results After 50 Times Washing E. coli [5, 17]
>4.0 mm: Biocidal results against S. aureus after being activated [4, 8]
˜1 mm: Biocidal Results After 50 Times Washing S. aureus [3, 14] | Biocidal Results After 50 Times Washing S. aureus [3, 17] | Biocidal Results After 50 Times Washing S. aureus [3, 18]
